Reference: patent publication US8846331B2, “Asynchronous magnetic bead rotation sensing systems and methods” (The Regents of the University of Michigan, priority 2010, dated 2014)
≈ marks a conversion by molar mass, not a printed value.

Assays:
Assay type in all cases: cell-based, Escherichia coli
uropathogenic E. coli [1] = test: AMBR with self-assembled magnetic particle clusters in hanging droplet, MIC measurement; settings: from FIGS. 47a and 47b, rotational period of clusters
Source text: FIGS. 46a-c illustrates one example AMBR using a cluster formed in a well having a curved interface (in this example, a hanging droplet). […] This lensing effect may be used to amplify the rotational signal by magnifying the image through the droplet. […] An LED or laser light may be focused by the droplet curvature, magnifying the ‘image’ of the particle cluster a 100-fold. After the magnification, the rotational period can be observed and measured using a photodetector, thus observing a periodic signal corresponding to the rotational period of the cluster. FIG. 46b illustrates the change in cluster shape/size and rotation. The rotational period of the cluster changes accordingly: as the cluster itself expands (e.g., changing shape to have a larger diameter); as bacteria or other analytes attach to the cluster and/or expand/swell; or as the viscosity of the surrounding fluid changes. Viscosity may change if unbound cells divide and increase in number within the well. The rotational period of the cluster can be measured using the Fast Fourier Transform (FFT). The lower graphs in FIG. 46b show a shift in the peak observing the peak location. […]
The self-assembled magnetic particles shown in FIG. 47a-g enabled rapid MIC measurements, and the determined values agreed with values obtained with the traditional microdilution method. […]

[2] = test system: uropathogenic E. coli isolate; test: MIC determination with the Vitek 2 system
E. coli [3] = test: AMBR 16-well prototype, growth of E. coli on clusters of magnetic particles (FIG. 3d); settings: 0, 2, 4 and 8 μg/mL antibiotic
Source text: FIGS. 3a-f illustrates results from one variation of a multiwell prototype device using a 16-well disposable card. […] FIG. 3b illustrates exemplary results showing raw periodic laser intensity data corresponding to the rotation of the sample for one well; FIG. 3c is an image of a 16 sensor array AMBR system prototype that incorporates low-power lasers and phototransistors to measure rotational data (with black tray that supports the disposable card). FIG. 3d illustrates a graph of antibiotic susceptibility results for averaged and normalized data with E. coli bacteria.
For example, when cell division occurs, a significant portion of the bacteria remain on the surface of the particles. Thus, a more reliable growth response may be detected (as cells are not all shed into the medium). […] Clusters may be readily detected and their rotation more easily optically resolved. […] This allows for response to antibiotics to be measured in a reproducible manner, which makes the technique more clinically relevant. FIGS. 3a-3f illustrate a prototype device that has been used as a proof-of-principle for the rotation of clusters and use of multiwell sample plates. The example shown in FIG. 3a is a 16-well disposable plate. Each well in the plate (which may also be referred to as a “card”) has been treated to contain a single cluster of magnetic particles that rotate as a group. […]

E. coli [4] = test: AMBR multiwell card reader, rotational period growth curves (FIG. 9); settings: FIG. 9, driving frequency 100 Hz
Method: FIG. 9 illustrates the rotational period (in seconds) of rotating magnetic beads with attached E. coli versus time (in minutes) for various concentrations of antibiotic (Gentamicin).
A clinical sample (e.g. blood, urine, etc) may be mixed with a Muller-Hinton (MH) or phosphate buffered saline solution that contains magnetic beads that are coated with antibodies specific to the pathogen of interest. The bacteria and beads are incubated together to allow for ample time to bind and if necessary, population growth of the bacteria. […] This solution (now containing only […]) is then placed into the disposable (preferably multiwell) plate, where the beads are asynchronously rotated in the card reader for detection/identification and antibiotic susceptibility testing, where the minimum inhibitory concentration will be determined. […] Finally, the magnetic particles are rotated in the asynchronous regime and monitored optically to determine cell growth (elongation and/or division). […]
The asynchronous rotational period of the rotating cluster of magnetic particles may be measured using the light modulation that is produced when each laser beam (or other light) passes through the small magnetic bead cluster. […] From this, the rotation rate can be measured by simply tracking the peak-to-peak distance (period) of the modulated intensity. […]

uropathogenic E. coli [5] = test: AMBR droplet microfluidic platform, small cell-population growth response (AST); settings: for change in rotational period (bacterial growth): monitored minimum one hour
Source text: Asynchronous magnetic bead rotation (AMBR) may be performed on hanging droplets and on oil/water emulsions (e.g., droplets of water including the magnetic beads and analyte suspended in oil). For example an AMBR biosensor may use a droplet microfluidic platform that enables single cell and small cell population growth measurements for applications aimed at rapid antimicrobial susceptibility testing (“AST”). […] Growth was observed below the MIC, and no growth was observed above the MIC. A 52% change in the sensor signal (i.e. rotational period) was observed within 15 minutes, thus allowing AST measurements to be performed within minutes.
The microfluidic platform typically forms reproducibly or uniform-sized droplets of aqueous solution (e.g., media) including magnetic particles. […] In this example, the continuous phase consisted of mineral oil with 1% SPAN 80 (v/v). For bead (magnetic particle) characterization experiments, the aqueous phase consisted of PBS solution: PBS with 1% Pluronic F-68 and 0.1% BSA. For biological experiments, the aqueous phase consisted of MH broth solution: MH with 1% Pluronic F-68 and 0.1% BSA, which will be referred to as MH-PB.
In one example, using the microfluidic device described above and in FIGS. 23a and 23b, experiments were conducted on an Olympus IX71 inverted microscope. The microfluidic device was placed inside custom-built electromagnet coils that were integrated on the microscope stage (see, e.g., FIG. 23c). In this example, the rotating magnetic field was generated with a custom LabView program and data acquisition board (NI PCI-6221). The magnetic field driving frequency range was 0.1 Hz to 1 kHz, and the magnetic field strength was 0.9 mT, as measured with a 3-axis magnetic field probe (Senis Gmbh, C-H3A-2m).
Magnetic bead characterization experiments were conducted at 21° C. Single cell experiments were conducted at 21° C., with a 100× oil immersion objective. The magnetic field driving frequency was set at 500 Hz for control and growth experiments. One-minute videos at 15 frames per second (fps) were taken in 5-minute intervals with a digital camera. Small cell-population experiments were conducted at 35° C., with a 40× objective. The microfluidic device was placed on an ITO slide that was heated and maintained at a set temperature, 35+0.2° C. This temperature was monitored by a thermocouple that was coupled to the surface of the slide with a thermally conducting silver paste, Arctic Silver 5 (ARCTIC SILVER). The magnetic field driving frequency for small cell-population control and growth experiments was set at 50 Hz, and continuous videos were taken for a minimum of 5 hours at 2 fps. For small cell-population control and antibiotic response experiments, 1-minute videos were taken at 20 fps in either 5-minute or 20-minute intervals.
As mentioned, movies were captured with a digital camera (Basler, piA640-210 gm). The videos were analyzed using ImageJ (for example, see FIG. 23d). The rotational frequency of the bead complex was determined by monitoring the fluctuations in intensity profile at the target area of interest using ImageJ s ‘plot z-axis profile’ functionality. This intensity plot was analyzed by applying a Fast Fourier Transform (FFT) to the raw ImageJ data in MATLAB. The experimental error in determining the rotational period was designated as the FFT peak's full width at half max (FWHM) of the amplitude signal. […]

Compound: [H]/N=C(/N)N[C@H]1[C@H](O)[C@@H](O)[C@H](O[C@@H]2O[C@@H](C)[C@](O)(C=O)[C@H]2O[C@@H]2O[C@@H](CO)[C@H](O)[C@@H](O)[C@@H]2NC)[C@@H](N/C(N)=N\[H])[C@@H]1O [streptomycin]
- MIC (uropathogenic E. coli [1]; Escherichia coli, read-out: MIC measured with AMBR clusters): 8 µg/mL (≈ 13.8 µM)
- MIC ([2]; Escherichia coli, isolate of the magnetic particle cluster experiments (FIGS. 47a-b), read-out: clinical (reference) MIC as determined with Vitek 2): 16 µg/mL (≈ 27.5 µM)

Compound: CC1(C)S[C@@H]2[C@H](NC(=O)[C@H](N)c3ccccc3)C(=O)N2[C@H]1C(=O)O [ampicillin]
- effect on growth of E. coli on clusters (rotational period) (E. coli [3]): acts as a growth accelerating agent

Compound: gentamicin
- minimum inhibitory concentration (MIC) from AMBR growth curves (E. coli [4]): 2 µg/mL
- MIC measured with AMBR clusters (uropathogenic E. coli [1]): 2 µg/mL
- change in rotational period (bacterial growth) (uropathogenic E. coli [5]; 0.5 μg/mL gentamicin): increase in rotational period
- change in rotational period (bacterial growth) (uropathogenic E. coli [5]; 2 μg/mL gentamicin): No substantial change in the rotational period
- change in rotational period (bacterial growth) (uropathogenic E. coli [5]; 4 μg/mL gentamicin): No substantial change in the rotational period
- difference in rotational period between bacteria treated above and below the MIC (uropathogenic E. coli [5]; after 15 minutes): 52%
- difference in rotational period between bacteria treated above and below the MIC (uropathogenic E. coli [5]; within 25 minutes): 100%
- MIC as determined with the Vitek 2 system ([2]; isolate of the droplet microfluidic experiments): 1 µg/mL
- clinical (reference) MIC as determined with Vitek 2 ([2]; isolate of the magnetic particle cluster experiments (FIGS. 47a-b)): 2 µg/mL
